From patent publication US6479265B1, “Catalytic antibodies which hydrolyze primary amides and methods for eliciting and use of such antibodies” (Igen International, Inc., priority 1993, dated 2002)

Test system: 13D11
Test: Inhibition of hydrolysis of 10 by 13D11 (secondary screening)
Assay type: biochemical, mice
Conditions: buffer tried as an alternative to Tris
Protocol: Antibody 13D11 (14.5 μM) was re-screened for activity toward 10 (nominally 500 μM) in the absence and presence of 63 μM (RT-2 hapten)(D/L mixture).
Until this point, 13D11 antibody had been purified by Protein A and DEAE chromatography. To determine whether the activity toward 10 was due to a contaminating enzyme, 13D11 was further purified on a Mono Q column (Pharmacia) by FPLC.

O=S(=O)(O)CCNC1CCCCC1 [CHES]
inhibition of the hydrolysis of 10 by 13D11: found to inhibit
